Patent US20110053925A1, “Hydroxamate-Based Inhibitors of Deacetylases” (Novartis AG, priority 2009, published 2011)

How the values were obtained:
HDAC-1 = molecular target: T1, HDAC-1 (Homo sapiens, UniProt Q13547); assay: HDAC Inhibition Assay (purified GST-HDAC protein); assay type: biochemical
T1 construct: made in house; host or cells: Sf9 or Sf21 insect cells (baculovirus, donor vector pFB-GSTX3)
Description: The baculovirus donor vector pFB-GSTX3 is used to generate a recombinant baculovirus that can express the HDAC polypeptide. Transfer vectors containing the HDAC coding region are transfected into the DH10Bac cell line (GIBCO) and plated on selective agar plates. Colonies without insertion of the fusion sequence into the viral genome (carried by the bacteria) are blue. Single, white colonies are picked and viral DNAs (bacmid) are isolated from the bacteria by standard plasmid purification procedures. Sf9 cells or Sf21 (American Type Culture Collection) cells are then transfected in […] flasks with the viral DNA using Cellfectin reagent.
Virus-containing media is collected from the transfected cell culture and used for infection to increase its titer. Virus-containing media obtained after two rounds of infection is used for large-scale protein expression. For large-scale protein expression 100 cm^2 round tissue culture plates are seeded with 5×10^7 cells/plate and infected with 1 mL of virus-containing media (at an approximately MOI of 5). After 3 days, the cells are scraped off the plate and centrifuged at 500 rpm for 5 minutes. Cell pellets from 10-20, 100 cm^2 plates, are re-suspended in 50 mL of ice-cold lysis buffer (25 mM tris-HCl, pH 7.5, 2 mM EDTA, 1% NP-40, 1 mM DTT, 1 mM P MSF). The cells are stirred on ice for 15 minutes and then centrifuged at 5,000 rpms for 20 minutes.
The centrifuged cell lysate is loaded onto a 2 mL glutathione-sepharose column (Pharmacia) and is washed thrice with 10 mL of 25 mM tris-HCl, pH 7.5, 2 mM EDTA, 1 mM DTT, 200 mM NaCl. The GST-tagged proteins are then eluted by 10 applications (1 mL each) of 25 mM tris-HCl, pH 7.5, 10 mM reduced-glutathione, 100 mM NaCl, 1 mM DTT, 10% glycerol and stored at −70° C.
HDAC assays with purified GST-HDAC protein are carried out in a final volume of 30 μL containing 15 ng of GST-HDAC protein, 20 mM tris-HCl, pH 7.5, 1 mM MnCl2, 10 mM MgCl2, 1 mM DTT, 3 μg/mL poly(Glu,Tyr) 4:1, 1% DMSO, 2.0 μM ATP (γ-[^33P]-ATP 0.1 μCi). The activity is assayed in the presence or absence of inhibitors. […] Subsequently, […] of the reaction mixture are transferred onto EMMOBILON-PVDF membrane (Millipore) previously soaked for 5 minutes with methanol, rinsed with water, then soaked for 5 minutes with 0.5% H3PO4 and mounted on vacuum manifold with disconnected vacuum source. After spotting all samples, a vacuum is connected and each well rinsed with 200 μL 0.5% H3PO4. Membranes are removed and washed four times on a shaker with 1.0% H3PO4, once with ethanol. Membranes are counted after drying at ambient temperature, mounting in Packard TopCount 96-well frame, and addition of 10 μL/well of MICROSCINT™ (Packard).
• Input: 3×4 μL stopped assay on IMMOBILON membrane, not washed • Background (3 wells): assay with H2O instead of enzyme • Positive control (4 wells): 3% DMSO instead of compound • Bath control (1 well): no reaction mix
In each experiment, the actual inhibition by reference compound is used for normalization of IC50 values to the basis of an average value of the reference inhibitor:
Normalized IC50=measured IC50 average ref. IC50/measured ref. IC50

HCT116 = HCT116 IC50; assay type: cell-based; settings: Homo sapiens, HCT-116

T1 sequence (Q13547 whole entry, species assumed): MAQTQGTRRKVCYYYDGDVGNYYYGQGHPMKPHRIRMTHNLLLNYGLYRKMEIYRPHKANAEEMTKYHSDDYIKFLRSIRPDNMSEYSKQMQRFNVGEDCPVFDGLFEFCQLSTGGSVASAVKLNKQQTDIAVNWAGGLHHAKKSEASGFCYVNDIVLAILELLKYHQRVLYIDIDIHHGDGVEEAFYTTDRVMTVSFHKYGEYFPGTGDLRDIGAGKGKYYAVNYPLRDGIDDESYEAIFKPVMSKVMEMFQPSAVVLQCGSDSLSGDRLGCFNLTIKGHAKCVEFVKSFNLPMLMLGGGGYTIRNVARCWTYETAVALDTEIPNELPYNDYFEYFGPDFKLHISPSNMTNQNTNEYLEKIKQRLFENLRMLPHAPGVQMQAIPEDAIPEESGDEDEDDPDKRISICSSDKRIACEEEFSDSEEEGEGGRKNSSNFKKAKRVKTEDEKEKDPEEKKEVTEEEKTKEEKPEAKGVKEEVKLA

IC50 (HDAC-1)	IC50 (HCT116)	SMILES
9 nM	32 nM	O=C(/C=C/c1ccc(CN2CCCC(c3c[nH]c4ccccc34)C2)cc1)NO (stereo not drawn) [Compound 2, (E)-N-Hydroxy-3-{4-[3-(1H-indol-3-yl)-piperidin-1-ylmethyl]-phenyl}-acrylamide]
6 nM	12 nM	Cc1[nH]c2ccccc2c1[C@H]1CCCN(Cc2ccc(/C=C/C(=O)NO)cc2)C1 [Compound 3, (E)-N-Hydroxy-3-{4-[(R)-3-(2-methyl-1H-indol-3-yl)-piperidin-1-ylmethyl]-phenyl}-acrylamide]
11 nM	13 nM	Cc1[nH]c2ccc(N3CCOCC3)cc2c1C1CCCN(Cc2ccc(/C=C/C(=O)NO)cc2F)C1 (stereo not drawn) [Compound 4, (E)-3-{3-Fluoro-4-[3-(2-methyl-5-morpholin-4-yl-1H-indol-3-yl)-piperidin-1-ylmethyl]-phenyl}-N-hydroxy-acrylamide]
6 nM	2.1 nM	O=C(/C=C/c1ccc(CN2CCCC(c3c(-c4ccccc4)[nH]c4ccccc34)C2)cc1)NO (stereo not drawn) [Compound 5, (E)-N-Hydroxy-3-{4-[3-(2-phenyl-1H-indol-3-yl)-piperidin-1-ylmethyl]-phenyl}-acrylamide]
3 nM	0.3 nM	CC(C)(C)c1[nH]c2ccccc2c1C1CCCN(Cc2ccc(/C=C/C(=O)NO)cc2)C1 (stereo not drawn) [Compound 6, (E)-3-{4-[3-(2-tert-Butyl-1H-indol-3-yl)-piperidin-1-ylmethyl]-phenyl}-N-hydroxy-acrylamide]
9 nM	12 nM	CC(C)(C)c1[nH]c2ccccc2c1C1=CCCN(Cc2ccc(/C=C/C(=O)NO)cc2)C1 [Compound 7, (E)-3-{4-[5-(2-tert-Butyl-1H-indol-3-yl)-3,6-dihydro-2H-pyridin-1-ylmethyl]-phenyl}-N-hydroxy-acrylamide]
17 nM	300 nM	Cc1[nH]c2ccccc2c1C1C/C(=N/O)CN(Cc2ccc(/C=C/C(=O)NO)cc2)C1 (stereo not drawn) [Compound 8, (E)-N-Hydroxy-3-{4-[3-[(Z)-hydroxyimino]-5-(2-methyl-1H-indol-3-yl)-piperidin-1-ylmethyl]-phenyl}-acrylamide]
8 nM	48 nM	O=C(/C=C/c1ccc(CN2CCCC(C3C(=O)Nc4ccccc43)C2)cc1)NO (stereo not drawn) [Compound 9, (E)-N-Hydroxy-3-{4-[3-(2-oxo-2,3-dihydro-1H-indol-3-yl)-piperidin-1-ylmethyl]-phenyl}-acrylamide]
–	0.8 nM	CC(C)(C)c1[nH]c2ccccc2c1[C@@H]1CCCN(Cc2ccc(/C=C/C(=O)NO)cc2F)C1 [Compound 11, (E)-3-{4-[(S)-3-(2-tert-Butyl-1H-indol-3-yl)-piperidin-1-ylmethyl]-3-fluoro-phenyl}-N-hydroxy-acrylamide]
19 nM	5 nM	CC(C)(C)c1[nH]c2ccccc2c1C1CCCN(Cc2ccc(/C=C/C(=O)NO)cc2Cl)C1 (stereo not drawn) [Compound 12, (E)-3-{4-[3-(2-tert-Butyl-1H-indol-3-yl)-piperidin-1-ylmethyl]-3-chloro-phenyl}-N-hydroxy-acrylamide]
6 nM	2.8 nM	CC(C)(O)c1[nH]c2ccccc2c1C1CCCN(Cc2ccc(/C=C/C(=O)NO)cc2F)C1 (stereo not drawn) [Compound 13, (E)-3-(3-Fluoro-4-{3-[2-(1-hydroxy-1-methyl-ethyl)-1H-indol-3-yl]-piperidin-1-ylmethyl}-phenyl)-N-hydroxy-acrylamide]
7 nM	6 nM	C=C(C)c1[nH]c2ccccc2c1C1CCCN(Cc2ccc(/C=C/C(=O)NO)cc2F)C1 (stereo not drawn) [Compound 14, (E)-3-{3-Fluoro-4-[3-(2-isopropenyl-1H-indol-3-yl)-piperidin-1-ylmethyl]-phenyl}-N-hydroxy-acrylamide]
44 nM	14 nM	CCOC(=O)c1[nH]c2ccccc2c1C1CCCN(Cc2ccc(/C=C/C(=O)NO)cc2F)C1 (stereo not drawn) [Compound 17, 3-{1-[2-Fluoro-4-((E)-2-hydroxycarbamoyl-vinyl)-benzyl]-piperidin-3-yl}-1H-indole-2-carboxylic acid ethyl ester]
31 nM	37 nM	O=C(/C=C/c1ccc(CN2CCCC(c3c(C(=O)NO)[nH]c4ccccc34)C2)c(F)c1)NO (stereo not drawn) [Compound 18, 3-{1-[2-Fluoro-4-((E)-2-hydroxycarbamoyl-vinyl)-benzyl]-piperidin-3-yl}-1H-indole-2-carboxylic acid hydroxyamide]
22 nM	500 nM	O=C(/C=C/c1ccc(CN2CCCC(c3c(C(=O)N4CCOCC4)[nH]c4ccccc34)C2)c(F)c1)NO (stereo not drawn) [Compound 19, (E)-3-(3-Fluoro-4-{3-[2-(morpholine-4-carbonyl)-1H-indol-3-yl]-piperidin-1-ylmethyl}-phenyl)-N-hydroxy-acrylamide]
7 nM	13 nM	Cc1[nH]c2ccc(N3CCOCC3)cc2c1C1CCCN(Cc2ccc(/C=C/C(=O)NO)cc2)C1 (stereo not drawn) [Compound 20, (E)-N-Hydroxy-3-{4-[3-(2-methyl-5-morpholin-4-yl-1H-indol-3-yl)-piperidin-1-ylmethyl]-phenyl}-acrylamide]
6 nM	21 nM	CC(C)c1[nH]c2ccccc2c1C1CCCN(Cc2ccc(CCC(=O)NO)cc2F)C1 (stereo not drawn) [Compound 21, 3-{3-Fluoro-4-[3-(2-isopropyl-1H-indol-3-yl)-piperidin-1-ylmethyl]-phenyl}-N-hydroxy-propionamide]
32 nM	470 nM	O=C(/C=C/c1ccc(CN2CCOC(c3cc(-c4ccccc4)no3)C2)cc1)NO (stereo not drawn) [Compound 24, (E)-N-Hydroxy-3-{4-[2-(3-phenyl-isoxazol-5-yl)-morpholin-4-ylmethyl]-phenyl}-acrylamide]
260 nM	–	O=C(/C=C/c1ccc(CN2CCN(S(=O)(=O)c3ccc(F)cc3)CC2)cc1)NO [Compound 57, (E)-3-{4-[4-(4-Fluoro-benzenesulfonyl)-piperazin-1-ylmethyl]-phenyl}-N-hydroxy-acrylamide]
290 nM	–	O=C(/C=C/c1ccc(CN2CCN(S(=O)(=O)c3ccccc3)c3ccccc32)cc1)NO [Compound 58, (E)-3-[4-(4-Benzenesulfonyl-3,4-dihydro-2H-quinoxalin-1-ylmethyl)-phenyl]-N-hydroxy-acrylamide]
320 nM	–	O=C(/C=C/c1ccc(CN2CCN(C(=O)Nc3ccccc3)c3ccccc32)cc1)NO [Compound 59, 4-[4-((E)-2-Hydroxycarbamoyl-vinyl)-benzyl]-3,4-dihydro-2H-quinoxaline-1-carboxylic acid phenylamide]
220 nM	–	O=C(/C=C/c1ccc(CN2CCN(C(=O)C3CCCCC3)c3ccccc32)cc1)NO [Compound 60, (E)-3-[4-(4-Cyclohexanecarbonyl-3,4-dihydro-2H-quinoxalin-1-ylmethyl)-phenyl]-N-hydroxy-acrylamide]
250 nM	–	O=C(/C=C/c1ccc(CN2CCN(C(=O)NCc3ccccc3)c3ccccc32)cc1)NO [Compound 61, 4-[4-((E)-2-Hydroxycarbamoyl-vinyl)-benzyl]-3,4-dihydro-2H-quinoxaline-l-carboxylic acid benzylamide]

SMILES	IC50 (HDAC-1)	IC50 (HCT116)
O=C(/C=C/c1ccc(CN2CCCC(c3c(-c4ccccc4)[nH]c4ccccc34)C2)c(F)c1)NO (stereo not drawn) [Compound 15, (E)-3-{3-Fluoro-4-[3-(2-phenyl-1H-indol-3-yl)-piperidin-1-ylmethyl]-phenyl}-N-hydroxy-acrylamide]	11 nM	5.2 nM
